# Reference: patent publication US20250084039A1, “4-SUBSTITUTED AMINOISOQUINOLINE DERIVATIVES” (Purdue Research Foundation, priority 2016, published 2025)
# Experiments:
# Assay in all cases: Reaction Biology HotSpot kinase assay
# Format in all cases: biochemical
# RAF1 = details: 500 nM compound
# How it was run: (§1)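 Buffer 20 mM HEPES pH 7.5 / 10 mM MgCl2 / 1 mM EGTA / 0.02% Brij35 / 0.02 mg/mL BSA / 0.1 mM Na3VO4 / 2 mM DTT / 1% DMSO. Cpd 500 nM, 20 min. [γ-33P]ATP mix at 100 μM, 2 h RT. P81 spotting; % activity remaining vs DMSO.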
# RET = RET (Homo sapiens (Human), UniProt P07949); details: 500 nM compound; for inhibition at 0.5 µM: read-out: Percentage kinase inhibition RET
# How it was run: as §1
# FAK/PTK2 = FAK/PTK2 (Homo sapiens (Human), UniProt Q05397); details: 500 nM compound; for inhibition at 0.5 µM: read-out: Percentage kinase inhibition FAK/PTK2
# How it was run: as §1
# HCK = HCK (Homo sapiens (Human), UniProt P08631); details: 500 nM compound; for inhibition at 0.5 µM: read-out: Percentage kinase inhibition HCK
# How it was run: as §1
# ITK = ITK (Homo sapiens (Human), UniProt Q08881); details: 500 nM compound; for inhibition at 0.5 µM: read-out: Percentage kinase inhibition ITK
# ITK, sequence (Q08881 whole entry): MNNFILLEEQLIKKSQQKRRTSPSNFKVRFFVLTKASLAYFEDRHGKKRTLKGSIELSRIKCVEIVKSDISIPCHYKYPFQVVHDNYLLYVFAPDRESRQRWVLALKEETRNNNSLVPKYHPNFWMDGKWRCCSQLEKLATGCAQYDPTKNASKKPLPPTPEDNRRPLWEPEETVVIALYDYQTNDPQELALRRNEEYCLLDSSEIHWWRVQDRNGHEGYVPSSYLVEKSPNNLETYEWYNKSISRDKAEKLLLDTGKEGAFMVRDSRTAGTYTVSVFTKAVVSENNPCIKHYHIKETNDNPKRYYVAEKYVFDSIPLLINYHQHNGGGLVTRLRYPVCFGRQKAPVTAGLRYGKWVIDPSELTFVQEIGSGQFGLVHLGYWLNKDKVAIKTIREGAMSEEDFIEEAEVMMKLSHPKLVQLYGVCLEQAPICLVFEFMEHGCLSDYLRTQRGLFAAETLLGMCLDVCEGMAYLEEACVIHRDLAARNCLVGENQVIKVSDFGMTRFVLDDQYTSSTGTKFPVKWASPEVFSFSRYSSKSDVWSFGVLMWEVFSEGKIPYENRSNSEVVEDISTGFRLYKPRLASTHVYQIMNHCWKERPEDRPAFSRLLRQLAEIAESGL
# How it was run: as §1
# IKKa/CHUK = IKKa/CHUK (Homo sapiens (Human), UniProt O15111); details: 500 nM compound; for inhibition at 0.5 µM: read-out: Percentage kinase inhibition IKKa/CHUK
# How it was run: as §1
# TGFBR2 = TGFBR2 (Homo sapiens (Human), UniProt P37173); details: 500 nM compound; for inhibition at 0.5 µM: read-out: Percentage kinase inhibition TGFBR2
# How it was run: as §1
# CSK = CSK (Homo sapiens (Human), UniProt P41240); details: 500 nM compound; for inhibition at 0.5 µM: read-out: Percentage kinase inhibition CSK
# CSK, sequence (P41240 whole entry): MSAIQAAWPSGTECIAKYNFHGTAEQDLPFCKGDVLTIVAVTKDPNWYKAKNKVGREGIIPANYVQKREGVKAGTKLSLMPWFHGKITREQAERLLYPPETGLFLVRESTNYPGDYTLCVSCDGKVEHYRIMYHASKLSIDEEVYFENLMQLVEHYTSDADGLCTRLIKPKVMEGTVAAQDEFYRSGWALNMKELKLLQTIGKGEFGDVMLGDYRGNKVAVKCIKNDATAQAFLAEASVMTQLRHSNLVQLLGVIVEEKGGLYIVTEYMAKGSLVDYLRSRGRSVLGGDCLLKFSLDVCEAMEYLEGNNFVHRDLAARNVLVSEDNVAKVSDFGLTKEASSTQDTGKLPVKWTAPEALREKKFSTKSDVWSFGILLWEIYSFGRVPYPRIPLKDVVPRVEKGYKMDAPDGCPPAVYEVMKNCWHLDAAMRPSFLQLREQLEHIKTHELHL
# How it was run: as §1
# RON/MST1R = RON/MST1R (Homo sapiens (Human), UniProt Q04912); details: 500 nM compound; for inhibition at 0.5 µM: read-out: Percentage kinase inhibition RON/MST1R
# RON/MST1R, sequence (Q04912 25-1400): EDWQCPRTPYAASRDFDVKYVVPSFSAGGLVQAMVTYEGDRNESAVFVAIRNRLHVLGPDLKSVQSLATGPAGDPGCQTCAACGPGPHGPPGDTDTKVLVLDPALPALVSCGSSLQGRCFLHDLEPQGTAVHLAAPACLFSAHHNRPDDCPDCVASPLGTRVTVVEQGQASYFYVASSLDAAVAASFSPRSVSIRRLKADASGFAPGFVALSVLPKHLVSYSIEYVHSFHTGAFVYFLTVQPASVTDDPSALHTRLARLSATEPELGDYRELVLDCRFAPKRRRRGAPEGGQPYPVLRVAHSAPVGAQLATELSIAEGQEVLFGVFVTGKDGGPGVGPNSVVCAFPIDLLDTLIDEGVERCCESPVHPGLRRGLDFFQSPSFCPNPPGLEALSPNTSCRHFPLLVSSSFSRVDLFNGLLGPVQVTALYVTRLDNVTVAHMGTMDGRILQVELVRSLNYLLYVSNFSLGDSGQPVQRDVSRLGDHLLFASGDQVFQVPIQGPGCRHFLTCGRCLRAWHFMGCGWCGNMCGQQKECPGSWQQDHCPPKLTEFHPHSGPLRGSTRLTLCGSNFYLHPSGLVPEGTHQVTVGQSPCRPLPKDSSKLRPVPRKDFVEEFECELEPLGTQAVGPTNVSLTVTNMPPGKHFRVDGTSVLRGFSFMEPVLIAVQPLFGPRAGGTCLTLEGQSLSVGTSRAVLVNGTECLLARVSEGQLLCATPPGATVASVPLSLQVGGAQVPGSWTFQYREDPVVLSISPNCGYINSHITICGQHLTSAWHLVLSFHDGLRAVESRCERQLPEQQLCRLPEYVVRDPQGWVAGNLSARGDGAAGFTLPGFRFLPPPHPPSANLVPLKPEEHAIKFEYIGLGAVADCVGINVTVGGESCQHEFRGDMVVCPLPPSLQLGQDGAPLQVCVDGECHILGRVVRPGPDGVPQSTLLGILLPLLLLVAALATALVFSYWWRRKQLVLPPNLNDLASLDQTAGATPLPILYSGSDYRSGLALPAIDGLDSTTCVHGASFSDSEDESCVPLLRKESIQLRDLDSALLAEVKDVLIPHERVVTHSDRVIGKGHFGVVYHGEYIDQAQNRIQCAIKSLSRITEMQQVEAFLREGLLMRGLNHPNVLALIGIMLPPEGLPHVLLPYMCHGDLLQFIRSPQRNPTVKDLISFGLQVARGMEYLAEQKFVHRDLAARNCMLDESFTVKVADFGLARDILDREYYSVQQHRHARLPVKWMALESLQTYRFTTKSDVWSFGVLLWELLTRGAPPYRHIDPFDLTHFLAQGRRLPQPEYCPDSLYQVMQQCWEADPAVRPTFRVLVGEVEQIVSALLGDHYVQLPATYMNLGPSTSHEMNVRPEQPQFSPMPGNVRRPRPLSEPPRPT
# How it was run: as §1
# CDK9/cyclin T1 = CDK9/cyclin T1 (Homo sapiens (Human), UniProt P50750); details: 500 nM compound; for inhibition at 0.5 µM: read-out: Percentage kinase inhibition CDK9/cyclin T1
# How it was run: as §1
# BRK = BRK (Homo sapiens (Human), UniProt Q13882); details: 500 nM compound; for inhibition at 0.5 µM: read-out: Percentage kinase inhibition BRK
# How it was run: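 Compounds were screened at one concentration, 500 nM, in a radiometric kinase reaction. After a 20-minute preincubation with enzyme and substrate in pH 7.5 HEPES buffer (1% DMSO), the mixture received 100 μM ATP containing [γ-33P]ATP and was left 2 h at room temperature.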
# ROCK1 = ROCK1 (Homo sapiens (Human), UniProt Q13464); details: 500 nM compound; for inhibition at 0.5 µM: read-out: Percentage kinase inhibition ROCK1
# How it was run: as §1
# MKK7 = MKK7 (Homo sapiens (Human), UniProt O14733); details: 500 nM compound; for inhibition at 0.5 µM: read-out: Percentage kinase inhibition MKK7
# How it was run: as §1
# PIM1 = PIM1 (Homo sapiens (Human), UniProt P11309); details: 500 nM compound; for inhibition at 0.5 µM: read-out: Percentage kinase inhibition PIM1
# PIM1, sequence (P11309 whole entry): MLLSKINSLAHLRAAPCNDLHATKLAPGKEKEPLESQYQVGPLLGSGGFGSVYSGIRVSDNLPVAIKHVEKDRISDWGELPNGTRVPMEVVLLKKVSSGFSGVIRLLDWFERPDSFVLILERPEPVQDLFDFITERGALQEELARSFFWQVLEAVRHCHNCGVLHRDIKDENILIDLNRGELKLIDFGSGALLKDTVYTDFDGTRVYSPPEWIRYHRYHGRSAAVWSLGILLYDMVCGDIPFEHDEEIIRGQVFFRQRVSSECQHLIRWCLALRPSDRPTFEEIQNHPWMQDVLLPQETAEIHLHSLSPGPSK
# How it was run: as §1
# CDK9/cyclin K = CDK9/cyclin K (Homo sapiens (Human), UniProt P50750); details: 500 nM compound; for inhibition at 0.5 µM: read-out: Percentage kinase inhibition CDK9/cyclin K
# How it was run: as §1
# PDK1/PDHK1 = PDK1/PDHK1 (Homo sapiens (Human), UniProt Q15118); details: 500 nM compound; for inhibition at 0.5 µM: read-out: Percentage kinase inhibition PDK1/PDHK1
# How it was run: as §1
# TYK2 = TYK2 (Homo sapiens (Human), UniProt P29597); details: 500 nM compound; for inhibition at 0.5 µM: read-out: Percentage kinase inhibition TYK2
# How it was run: as §1
# IRR/INSRR = IRR/INSRR (Homo sapiens (Human), UniProt P14616); details: 500 nM compound; for inhibition at 0.5 µM: read-out: Percentage kinase inhibition IRR/INSRR
# How it was run: as §1
# RSK2 = RSK2 (Homo sapiens (Human), UniProt P51812); details: 500 nM compound; for inhibition at 0.5 µM: read-out: Percentage kinase inhibition RSK2
# RSK2, sequence (P51812 whole entry): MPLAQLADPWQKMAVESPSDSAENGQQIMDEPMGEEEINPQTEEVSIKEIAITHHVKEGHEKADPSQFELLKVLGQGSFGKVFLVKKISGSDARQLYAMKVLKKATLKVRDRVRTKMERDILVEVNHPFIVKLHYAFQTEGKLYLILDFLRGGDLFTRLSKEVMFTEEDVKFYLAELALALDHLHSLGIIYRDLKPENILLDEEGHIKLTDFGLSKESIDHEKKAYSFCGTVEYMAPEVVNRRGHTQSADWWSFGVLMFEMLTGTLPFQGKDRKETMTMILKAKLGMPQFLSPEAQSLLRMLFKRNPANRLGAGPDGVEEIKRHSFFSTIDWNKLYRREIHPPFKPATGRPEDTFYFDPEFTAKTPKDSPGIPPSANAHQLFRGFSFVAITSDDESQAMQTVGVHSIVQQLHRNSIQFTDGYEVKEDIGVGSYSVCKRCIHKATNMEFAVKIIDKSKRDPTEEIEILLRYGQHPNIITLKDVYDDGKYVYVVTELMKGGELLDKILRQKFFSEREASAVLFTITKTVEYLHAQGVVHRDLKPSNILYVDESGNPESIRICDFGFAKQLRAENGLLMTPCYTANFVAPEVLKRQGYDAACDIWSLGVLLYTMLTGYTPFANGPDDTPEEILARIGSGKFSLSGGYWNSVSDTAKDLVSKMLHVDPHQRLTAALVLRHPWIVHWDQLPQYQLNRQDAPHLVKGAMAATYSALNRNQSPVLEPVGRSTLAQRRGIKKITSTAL
# How it was run: as §1
# MEKK1 = MEKK1 (Homo sapiens (Human), UniProt Q13233); details: 500 nM compound; for inhibition at 0.5 µM: read-out: Percentage kinase inhibition MEKK1
# How it was run: as §1
# Aurora A = Aurora A (Homo sapiens (Human), UniProt O14965); details: 500 nM compound; for inhibition at 0.5 µM: read-out: Percentage kinase inhibition Aurora A
# Aurora A, sequence (O14965 whole entry): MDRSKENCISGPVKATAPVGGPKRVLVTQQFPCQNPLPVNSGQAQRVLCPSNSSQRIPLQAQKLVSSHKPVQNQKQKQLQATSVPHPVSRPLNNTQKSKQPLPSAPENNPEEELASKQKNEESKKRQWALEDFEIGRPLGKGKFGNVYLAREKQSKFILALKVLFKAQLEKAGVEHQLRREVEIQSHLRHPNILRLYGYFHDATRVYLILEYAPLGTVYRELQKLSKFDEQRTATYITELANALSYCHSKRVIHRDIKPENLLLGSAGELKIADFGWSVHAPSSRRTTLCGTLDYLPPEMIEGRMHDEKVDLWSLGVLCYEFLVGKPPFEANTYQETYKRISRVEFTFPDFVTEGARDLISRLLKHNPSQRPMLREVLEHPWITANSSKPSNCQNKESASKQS
# How it was run: (§2)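 Phosphotransfer from [γ-33P]ATP was quantified after filter binding on P81 paper. Conditions: 20 mM HEPES pH 7.5, 10 mM MgCl2, 0.1 mM Na3VO4, 2 mM DTT, 0.02 mg/mL BSA; ATP 100 μM final; 2 h at room temperature. Compound was dosed at 500 nM.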
# HIPK1 = HIPK1 (Homo sapiens (Human), UniProt Q86Z02); details: 500 nM compound; for inhibition at 0.5 µM: read-out: Percentage kinase inhibition HIPK1
# How it was run: as §1
# TAOK1 = TAOK1 (Homo sapiens (Human), UniProt Q7L7X3); details: 500 nM compound; for inhibition at 0.5 µM: read-out: Percentage kinase inhibition TAOK1
# How it was run: as §1
# PKD2/PRKD2 = PKD2/PRKD2 (Homo sapiens (Human), UniProt Q9BZL6); details: 500 nM compound; for inhibition at 0.5 µM: read-out: Percentage kinase inhibition PKD2/PRKD2
# How it was run: as §1
# ERK1 = ERK1 (Homo sapiens (Human), UniProt P27361); details: 500 nM compound; for inhibition at 0.5 µM: read-out: Percentage kinase inhibition ERK1
# How it was run: as §1
# CTK/MATK = CTK/MATK (Homo sapiens (Human), UniProt P42679); details: 500 nM compound; for inhibition at 0.5 µM: read-out: Percentage kinase inhibition CTK/MATK
# CTK/MATK, sequence (P42679 whole entry): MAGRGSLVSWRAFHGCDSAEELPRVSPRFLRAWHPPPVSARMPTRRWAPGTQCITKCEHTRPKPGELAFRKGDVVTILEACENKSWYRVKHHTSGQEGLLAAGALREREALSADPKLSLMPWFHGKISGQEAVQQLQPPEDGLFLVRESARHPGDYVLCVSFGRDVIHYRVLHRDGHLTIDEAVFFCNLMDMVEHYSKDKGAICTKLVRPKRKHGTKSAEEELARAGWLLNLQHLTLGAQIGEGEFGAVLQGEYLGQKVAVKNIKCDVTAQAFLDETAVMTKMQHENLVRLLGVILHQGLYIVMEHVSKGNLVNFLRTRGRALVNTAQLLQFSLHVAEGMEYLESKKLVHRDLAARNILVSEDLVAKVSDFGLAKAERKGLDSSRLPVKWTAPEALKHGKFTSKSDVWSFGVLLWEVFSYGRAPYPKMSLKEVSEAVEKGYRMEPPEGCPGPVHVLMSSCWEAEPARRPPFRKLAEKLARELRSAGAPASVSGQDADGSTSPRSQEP
# How it was run: as §1
# CDK6/cyclin D3 = CDK6/cyclin D3 (Homo sapiens (Human), UniProt Q00534); details: 500 nM compound; for inhibition at 0.5 µM: read-out: Percentage kinase inhibition CDK6/cyclin D3
# How it was run: as §1
# SYK = SYK (Homo sapiens (Human), UniProt P43405); details: 500 nM compound; for inhibition at 0.5 µM: read-out: Percentage kinase inhibition SYK
# How it was run: as §1
# BLK = BLK (Homo sapiens (Human), UniProt P51451); details: 500 nM compound; for inhibition at 0.5 µM: read-out: Percentage kinase inhibition BLK
# How it was run: as §2
# ZAP70 = ZAP70 (Homo sapiens (Human), UniProt P43403); details: 500 nM compound; for inhibition at 0.5 µM: read-out: Percentage kinase inhibition ZAP70
# ZAP70, sequence (P43403 whole entry): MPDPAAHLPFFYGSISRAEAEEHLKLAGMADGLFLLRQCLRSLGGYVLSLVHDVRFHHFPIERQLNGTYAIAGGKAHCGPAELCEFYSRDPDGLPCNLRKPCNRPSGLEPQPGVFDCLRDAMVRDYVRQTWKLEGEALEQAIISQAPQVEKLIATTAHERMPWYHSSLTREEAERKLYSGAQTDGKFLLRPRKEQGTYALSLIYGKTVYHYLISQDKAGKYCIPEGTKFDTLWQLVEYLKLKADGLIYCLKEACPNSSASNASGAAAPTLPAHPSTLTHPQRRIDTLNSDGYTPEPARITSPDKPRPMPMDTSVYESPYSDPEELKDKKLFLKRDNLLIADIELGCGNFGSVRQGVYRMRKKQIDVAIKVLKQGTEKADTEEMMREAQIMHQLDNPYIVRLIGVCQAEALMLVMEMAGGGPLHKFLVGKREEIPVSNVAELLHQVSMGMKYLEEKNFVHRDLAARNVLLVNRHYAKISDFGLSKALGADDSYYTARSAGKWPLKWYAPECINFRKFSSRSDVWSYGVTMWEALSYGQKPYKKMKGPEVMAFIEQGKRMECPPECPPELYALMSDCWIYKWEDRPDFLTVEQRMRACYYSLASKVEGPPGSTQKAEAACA
# How it was run: as §1
# EPHA3 = EPHA3 (Homo sapiens (Human), UniProt P29320); details: 500 nM compound; for inhibition at 0.5 µM: read-out: Percentage kinase inhibition EPHA3
# How it was run: as §1
compound,measurement,setting,value
"Cc1ccc(C(=O)Nc2ccc(CN3CCN(C)CC3)c(C(F)(F)F)c2)cc1C#Cc1cnc(N)c2ncccc12 [HSN356, 3-((8-amino-1,7-naphthyridin-5-yl)ethynyl)-4-methyl-N-(4-((4-methylpiperazin-1-yl)methyl)-3-(trifluoromethyl)phenyl)benzamide]",Percentage kinase inhibition RAF1,RAF1,100%
same,inhibition at 0.5 µM,RET,100%
COc1cc2nc(N)nc(C#Cc3cc(C(=O)Nc4ccc(CN5CCN(C)CC5)c(C(F)(F)F)c4)ccc3C)c2cc1OC [HSN325],inhibition at 0.5 µM,FAK/PTK2,0%
same,inhibition at 0.5 µM,HCK,18%
same,inhibition at 0.5 µM,ITK,1%
same,inhibition at 0.5 µM,IKKa/CHUK,6%
same,inhibition at 0.5 µM,TGFBR2,0%
same,inhibition at 0.5 µM,CSK,0%
same,inhibition at 0.5 µM,RON/MST1R,0%
same,inhibition at 0.5 µM,CDK9/cyclin T1,0%
same,inhibition at 0.5 µM,BRK,0%
same,inhibition at 0.5 µM,ROCK1,3%
same,inhibition at 0.5 µM,MKK7,6%
same,inhibition at 0.5 µM,PIM1,0%
same,inhibition at 0.5 µM,CDK9/cyclin K,7%
same,inhibition at 0.5 µM,PDK1/PDHK1,1%
same,inhibition at 0.5 µM,TYK2,0%
same,inhibition at 0.5 µM,IRR/INSRR,0%
same,inhibition at 0.5 µM,RSK2,0%
same,inhibition at 0.5 µM,MEKK1,4%
same,inhibition at 0.5 µM,Aurora A,0%
same,inhibition at 0.5 µM,HIPK1,0%
same,inhibition at 0.5 µM,TAOK1,0%
same,inhibition at 0.5 µM,PKD2/PRKD2,0%
same,inhibition at 0.5 µM,ERK1,0%
same,inhibition at 0.5 µM,RET,96%
same,inhibition at 0.5 µM,CTK/MATK,5%
same,inhibition at 0.5 µM,CDK6/cyclin D3,0%
same,inhibition at 0.5 µM,SYK,0%
same,inhibition at 0.5 µM,BLK,30%
same,inhibition at 0.5 µM,ZAP70,0%
same,inhibition at 0.5 µM,EPHA3,6%
"Cc1ccc(C(=O)Nc2ccc(CN3CCN(C)CC3)c(C(F)(F)F)c2)cc1C#Cc1cnc(N)c2ccccc12 [HSN334, 3-((1-aminoisoquinolin-4-yl)ethynyl)-4-methyl-N-(4-((4-methylpiperazin-1-yl)methyl)-3-(trifluoromethyl)phenyl)benzamide]",Percentage kinase inhibition RAF1,RAF1,96%
same,inhibition at 0.5 µM,RET,100%
Cc1ccc(C(=O)Nc2ccc(CN3CCN(C)CC3)c(C(F)(F)F)c2)cc1C#Cc1cc(N)nc2ccccc12 [HSN285],Percentage kinase inhibition RAF1,RAF1,90%
CN(C)CC(O)CNC(=O)c1ccc(C#Cc2c(N)ncc3ccc(Cl)cc23)cc1 (stereo not shown) [HSM1702],Percentage kinase inhibition FAK/PTK2,FAK/PTK2,6%
same,Percentage kinase inhibition HCK,HCK,2%
same,Percentage kinase inhibition ITK,ITK,0%
same,Percentage kinase inhibition IKKa/CHUK,IKKa/CHUK,0%
same,Percentage kinase inhibition TGFBR2,TGFBR2,0%
same,Percentage kinase inhibition RAF1,RAF1,5%
same,Percentage kinase inhibition CSK,CSK,1%
same,Percentage kinase inhibition RON/MST1R,RON/MST1R,0%
same,Percentage kinase inhibition CDK9/cyclin T1,CDK9/cyclin T1,41%
same,Percentage kinase inhibition BRK,BRK,18%
same,Percentage kinase inhibition ROCK1,ROCK1,0%
same,Percentage kinase inhibition MKK7,MKK7,0%
same,Percentage kinase inhibition PIM1,PIM1,34%
same,Percentage kinase inhibition CDK9/cyclin K,CDK9/cyclin K,53%
same,Percentage kinase inhibition PDK1/PDHK1,PDK1/PDHK1,0%
same,Percentage kinase inhibition TYK2,TYK2,2%
same,Percentage kinase inhibition IRR/INSRR,IRR/INSRR,10%
same,Percentage kinase inhibition RSK2,RSK2,7%
same,Percentage kinase inhibition MEKK1,MEKK1,4%
same,Percentage kinase inhibition Aurora A,Aurora A,19%
same,Percentage kinase inhibition HIPK1,HIPK1,42%
same,Percentage kinase inhibition TAOK1,TAOK1,12%
same,Percentage kinase inhibition PKD2/PRKD2,PKD2/PRKD2,6%
same,Percentage kinase inhibition ERK1,ERK1,5%
same,Percentage kinase inhibition RET,RET,15%
same,Percentage kinase inhibition CTK/MATK,CTK/MATK,0%
same,Percentage kinase inhibition CDK6/cyclin D3,CDK6/cyclin D3,50%
same,Percentage kinase inhibition SYK,SYK,4%
same,Percentage kinase inhibition BLK,BLK,10%
same,Percentage kinase inhibition ZAP70,ZAP70,0%
same,Percentage kinase inhibition EPHA3,EPHA3,0%
Cc1ccc(C(=O)Nc2ccc(CN3CCN(C)CC3)c(C(F)(F)F)c2)cc1C#Cc1c(N)ncc2ccc(Cl)cc12 [HSN286],inhibition at 0.5 µM,FAK/PTK2,0%
same,inhibition at 0.5 µM,HCK,95%
same,inhibition at 0.5 µM,ITK,0%
same,inhibition at 0.5 µM,IKKa/CHUK,36%
same,inhibition at 0.5 µM,TGFBR2,15%
same,Percentage kinase inhibition RAF1,RAF1,94%
same,inhibition at 0.5 µM,CSK,93%
same,inhibition at 0.5 µM,RON/MST1R,0%
same,inhibition at 0.5 µM,CDK9/cyclin T1,0%
same,inhibition at 0.5 µM,BRK,92%
same,inhibition at 0.5 µM,ROCK1,0%
same,inhibition at 0.5 µM,MKK7,0%
same,inhibition at 0.5 µM,PIM1,0%
same,inhibition at 0.5 µM,CDK9/cyclin K,24%
same,inhibition at 0.5 µM,PDK1/PDHK1,0%
same,inhibition at 0.5 µM,TYK2,0%
same,inhibition at 0.5 µM,IRR/INSRR,0%
same,inhibition at 0.5 µM,RSK2,0%
same,inhibition at 0.5 µM,MEKK1,6%
same,inhibition at 0.5 µM,Aurora A,0%
same,inhibition at 0.5 µM,HIPK1,0%
same,inhibition at 0.5 µM,TAOK1,0%
same,inhibition at 0.5 µM,PKD2/PRKD2,7%
same,inhibition at 0.5 µM,ERK1,0%
same,inhibition at 0.5 µM,RET,100%
same,inhibition at 0.5 µM,CTK/MATK,0%
same,inhibition at 0.5 µM,CDK6/cyclin D3,7%
same,inhibition at 0.5 µM,SYK,0%
same,inhibition at 0.5 µM,BLK,100%
same,inhibition at 0.5 µM,ZAP70,0%
same,inhibition at 0.5 µM,EPHA3,96%
